Measured values taken from patent publication US12606541B2, “PPARg modulators and methods of use” (Eisai R&D Management Co., Ltd., priority 2020, dated 2026).

Assays:
His6-TEV-PPARγ-(234-505) = molecular target: T1, His6-TEV-PPARγ-(234-505) (Homo sapiens, UniProt P37231); assay: TR-FRET Assay to Measure Co-R Peptide Recruitment to PPARγ; assay type: biochemical; conditions: Co-R peptide (SMRT-ID2) recruitment; top final concentration 20 μM; read-out: TR-FRET i-Ag; AC50
T1 construct: The His6-TEV-PPARγ-(234-505) protein for assay was expressed and purified; TEV cleavage site (N); made in house
T1 sequence (P37231 234-505): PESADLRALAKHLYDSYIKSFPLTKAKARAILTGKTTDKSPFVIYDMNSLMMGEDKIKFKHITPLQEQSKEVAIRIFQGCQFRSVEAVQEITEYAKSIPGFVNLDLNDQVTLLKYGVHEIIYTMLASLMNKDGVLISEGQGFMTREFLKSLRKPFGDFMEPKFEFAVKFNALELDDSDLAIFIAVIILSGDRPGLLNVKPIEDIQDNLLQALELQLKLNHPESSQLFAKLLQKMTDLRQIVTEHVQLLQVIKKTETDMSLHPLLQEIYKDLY
In short: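 His-tagged PPARγ (or controls) was preincubated with compound for 20 minutes at room temperature, then 5 nM anti-His terbium antibody and 200 nM FITC-labeled SMRT-ID2 corepressor peptide (final) were added for a further hour. TR-FRET signal was normalized to percent response using 500 nM T0070907 and DMSO controls.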

UM-UC-9 engineered cells = assay: Cell proliferation / short-term viability assay, CellTiter-Glo 144 h; assay type: cell-based, human; conditions: Homo sapiens, UM-UC-9, 144 h, read-out: CTGlo 144 h UMUC9.5, G150
In short: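 UM-UC-9 engineered assay-ready cells seeded at 500 cells/well in high-glucose DMEM/10% FBS, treated from dose-response plates, grown at 37° C, 5% CO2. CellTiter-Glo 2.0 luminescence read on day 7, with a day-0 pretreatment plate as T0 reference and DMSO wells as negative control.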

Row | SMILES | AC50 (His6-TEV-PPARγ-(234-505)) | IC50 (UM-UC-9 engineered cells)
1 | COc1cc(-c2cc(C(=O)N3CCC(C(=O)NCc4cccc(F)c4F)CC3)n[nH]2)c(Cl)cn1 [Example 155, 1-(5-(5-chloro-2-methoxypyridin-4-yl)-1H-pyrazole-3-carbonyl)-N-(2,3-difluorobenzyl)piperidine-4-carboxamide] | 103 nM | 122 nM
2 | COc1cc(-c2cc(C(=O)N3CCC(C(=O)NCc4cccc(Cl)c4F)CC3)n[nH]2)c(Cl)cn1 [Example 156, N-(3-chloro-2-fluorobenzyl)-1-(5-(5-chloro-2-methoxypyridin-4-yl)-1H-pyrazole-3-carbonyl)piperidine-4-carboxamide] | 32.1 nM | 106 nM
3 | COc1cc(-c2cc(C(=O)N3CCC(C(=O)NCc4cccc(F)c4)CC3)n[nH]2)c(Cl)cn1 [Example 157, 1-(5-(5-chloro-2-methoxypyridin-4-yl)-1H-pyrazole-3-carbonyl)-N-(3-fluorobenzyl)piperidine-4-carboxamide] | 130 nM | 212 nM
4 | COc1cc(-c2cc(C(=O)N3CCC(C(=O)NCC4CCC=CO4)CC3)n[nH]2)c(Cl)cn1 (stereo not shown) [Example 158, 1-(5-(5-chloro-2-methoxypyridin-4-yl)-1H-pyrazole-3-carbonyl)-N-((3,4-dihydro-2H-pyran-2-yl)methyl)piperidine-4-carboxamide] | 296 nM | 544 nM
5 | COc1cc(-c2cc(C(=O)N3CCC(C(=O)NCc4cccc(Cl)c4)CC3)n[nH]2)c(F)cn1 [Example 159, N-(3-chlorobenzyl)-1-(5-(5-fluoro-2-methoxypyridin-4-yl)-1H-pyrazole-3-carbonyl)piperidine-4-carboxamide] | 27.1 nM | 62.4 nM
6 | COc1cc(-c2cc(C(=O)N3[C@@H]4CC[C@H]3C[C@H](C(=O)NCc3cccc(Cl)c3)C4)n[nH]2)c(F)cn1 [Example 160-A, (1R,3s,5S)—N-(3-chlorobenzyl)-8-(5-(5-fluoro-2-methoxypyridin-4-yl)-1H-pyrazole-3-carbonyl)-8-azabicyclo[3.2.1]octane-3-carboxamide] | 11.5 nM | 38.2 nM
7 | COc1cc(-c2cc(C(=O)N3[C@@H]4CC[C@H]3C[C@@H](C(=O)NCc3cccc(Cl)c3)C4)n[nH]2)c(F)cn1 [Example 160-B, (1R,3r,5S)—N-(3-chlorobenzyl)-8-(5-(5-fluoro-2-methoxypyridin-4-yl)-1H-pyrazole-3-carbonyl)-8-azabicyclo[3.2.1]octane-3-carboxamide] | 14200 nM | > 10000 nM
8 | COc1cc(-c2cc(C(=O)N3CCC(C(=O)N(C)Cc4cccc(Cl)c4)CC3)n[nH]2)c(F)cn1 [Example 161, N-(3-chlorobenzyl)-1-(5-(5-fluoro-2-methoxypyridin-4-yl)-1H-pyrazole-3-carbonyl)-N-methylpiperidine-4-carboxamide] | 941 nM | 1950 nM
9 | COc1cc(-c2cc(C(=O)N3CCC(C(=O)NC4(C(F)(F)F)CCCC4)CC3)n[nH]2)c(Cl)cn1 [Example 162, 1-(5-(5-chloro-2-methoxypyridin-4-yl)-1H-pyrazole-3-carbonyl)-N-(1-(trifluoromethyl)cyclopentyl)piperidine-4-carboxamide] | 588 nM | 908 nM
10 | COc1cc(-c2cc(C(=O)N3CCC(C(=O)NCc4ccc(OC(F)(F)F)cc4)CC3)n[nH]2)c(Cl)cn1 [Example 164, 1-(5-(5-chloro-2-methoxypyridin-4-yl)-1H-pyrazole-3-carbonyl)-N-(4-(trifluoromethoxy)benzyl)piperidine-4-carboxamide] | 608 nM | 1010 nM
11 | COc1cc(-c2nc(C(=O)N3CCC(C(=O)NCc4cccc(Cl)c4)CC3)n[nH]2)c(F)cn1 [Example 166, N-[(3-chlorophenyl)methyl]-1-[5-(5-fluoro-2-methoxypyridin-4-yl)-1H-1,2,4-triazole-3-carbonyl]piperidine-4-carboxamide] | 300 nM | > 10000 nM
